Experimental data as given in US20140363845A1, “CHOLESTEROL-BASED MEDIA SUPPLEMENTS FOR CELL CULTURE” (Biogen Idec MA Inc., priority 2011, published 2014).

Tests used:
NS0 cells [1] = experiment: cholesterol dosing in high cell density pseudo-perfusion shake flask culture; assay type: cell-based, murine; conditions: seed density 8×10^6 cells/ml
Protocol: FIG. 5A and FIG. 5B are graphs of a cholesterol dosing study in high cell density cell culture generated using pseudo-perfusion mode. […] Pseudo-perfusion cultures were established in shake flasks using growth medium supplement with GCLC at the following concentrations: 2.5 mg/L (▪), 7.5 mg/L (▴), 10.0 mg/L (0) to 12.5 mg/L (∘). Full volume medium exchanges were carried out on a daily basis. […] There was full volume exchange of medium in the shake flasks on a daily basis. The initial seed density was 8×10^6 cells/ml, and one volume of fresh growth medium was exchanged daily starting on day 1 post inoculation.

NS0 cells [2] = experiment: shake flask cell growth in medium held in WAVE Bioreactor bag; design: species or system murine; conditions: based on medium hold study and shake flask growth and viability data
Protocol: (§1) The rate of cholesterol depletion from the culture medium in single-use disposable bioreactor bags was determined. A medium hold study was performed in which 1.4 L of fresh pre-warmed culture medium containing 2.5 mg/L cholesterol (1 ml GCLC/liter medium) was added into a 2 L WAVE BIOREACTOR™ bag. The bag was then incubated under standard culture conditions, and 200 ml medium aliquots were aseptically removed from the bag at 15 min, 4 h, 7.5 h and 22 h incubation times. The medium aliquots at each time point were analyzed for cholesterol concentration (FIG. 1) and used to inoculate shake flask cultures seeded at 4×10^5 cells/ml. Shake-flask cultures were passaged for three days under standard conditions. A shake-flask control culture (no prior exposure to WAVE Bioreactor™ bag) containing 2.5 mg/L cholesterol (1 ml GCLC per liter medium) was seeded in parallel. Viable cell density and viability were measured every 24 hours (FIG. 2).
A cholesterol-dependent NS0 cell line expressing recombinant antibody was used in the study. The culture medium used was a chemically defined medium formulation. […]
(§2) Viable cell density was determined using a Cedex Automated Cell Culture Analyzer (Roche Innovatis AG). pH and pCO2 were measured off-line using a BioProfile pHOx analyzer (Nova Biomedical). Cholesterol concentration was measured using GC analysis by Invitrogen Medium Analytical Services.

[3] = medium hold study: cholesterol adsorption in disposable WAVE Bioreactor bag; assay type: physicochemical; conditions: medium with 2.5 mg/L cholesterol (1 ml GCLC/liter), after 22 hours of incubation in 2 L WAVE Bioreactor bag
Protocol: as §1, §2

NS0 cells [4] = conditions: ethanol dose study
Protocol: Cells were suspended in fresh medium containing increased amount of GCLC at concentrations of 5 mg/L and 7.5 mg/L and then incubated for 3 days in 2 L bags under standard cell culture conditions.

Structure (SMILES)	support of cell growth (NS0 cells [1]; 2.5 mg total cholesterol/L, daily full volume medium exchange)	cholesterol concentration required to support growth (NS0 cells [1]; high cell density pseudo-perfusion culture)	cholesterol concentration in the medium to be maintained to support cell growth (NS0 cells [2])	cholesterol concentration in the medium [3]	ethanol concentration at which cell growth was not inhibited (NS0 cells [4])
CC(C)CCC[C@@H](C)[C@H]1CC[C@H]2[C@@H]3CC=C4C[C@@H](O)CC[C@]4(C)[C@H]3CC[C@]12C [cholesterol]	insufficient to support growth	> 7.5 mg/L	above 1.0 mg/L	below detectable limits	
CCO [ethanol]					below 2%
